Measured values published in patent US12371454B2, “Cyclic peptide compound having Kras inhibitory action” (priority 2019, dated 2025).
Starred links: 1 amine or outer side, 2 acyl side, 3 side chain; linkers in the order of their positions; H or OH if unused. Positions of bridges follow the written chain, without caps; N, C: chain ends. Non-standard residues stand in square brackets, D forms with d. Residues, ends and D or L forms follow the SMILES beside them. *: point of attachment. hPhe(3-Cl-4-CF3) = N[C@@H](CCc1ccc(C(F)(F)F)c(Cl)c1)C(=O)O; NMeDab(N,N-(CH2CF2CH2)) = CN[C@@H](CCN1CC(F)(F)C1)C(=O)O; NMePhe(2-CF3) = CN[C@@H](Cc1ccccc1C(F)(F)F)C(=O)O; hPhe(4-CF3) = N[C@@H](CCc1ccc(C(F)(F)F)cc1)C(=O)O; NMePhe(4-Cl) = CN[C@@H](Cc1ccc(Cl)cc1)C(=O)O; NMePhe(4-F) = CN[C@@H](Cc1ccc(F)cc1)C(=O)O; X22 = O=C([C@@H]1Cc2ccccc2N1[*:1])[*:2]; NMeGly(cPent) = CN[C@H](C(=O)O)C1CCCC1; Phe(3-I) = N[C@@H](Cc1cccc(I)c1)C(=O)O; NMeY = CN[C@@H](Cc1ccc(O)cc1)C(=O)O; NMeCha = CN[C@@H](CC1CCCCC1)C(=O)O; NMehLeu = CN[C@@H](CCC(C)C)C(=O)O; NMeChg = CN[C@H](C(=O)O)C1CCCCC1; NMeF = CN[C@@H](Cc1ccccc1)C(=O)O; NMeD = CN[C@@H](CC(=O)O)C(=O)O; NMeL = CN[C@@H](CC(C)C)C(=O)O; NMeV = CN[C@H](C(=O)O)C(C)C; Azetidin(1-yl) = C1CN(*)C1; NMeA = CN[C@@H](C)C(=O)O; Nle = CCCC[C@H](N)C(=O)O; Piperidide = C1CCN(*)CC1; Pyrrolidide = C1CCN(*)C1; Ac5c = NC1(C(=O)O)CCCC1; Aze = O=C(O)[C@@H]1CCN1; CF3 = FC(F)(F)*; Sar = CNCC(=O)O; Propyl = CCC*

Each compound was assayed against T1, Kras and SOS1 (biotin-tagged human Kras loaded with GDP, His-tagged human SOS1) (Homo sapiens, UniProt P01116, G12D) (assay: Protein-protein interaction inhibition between Kras and SOS1 (KrasGl2D-SOS PPI) using AlphaScreen). Conditions: AlphaScreen; biotin-tagged human Kras loaded with GDP, His-tagged human SOS1; read-out: KRAS G12D-SOS PPI IC50.
T1 construct: made in house; host or cells: E. coli (stated for Kras only)
Assay type: binding
Method in brief: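 Binding between SOS1 and Kras is detected as bead-proximity luminescence: illuminate Ni-conjugated donors (680 nm), collect 520-620 nm emission from streptavidin-conjugated acceptors; Kras carries biotin and GDP loaded after purification, SOS1 carries a His tag.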

T1 sequence (P01116 1-188 isoform P01116-2 G12D): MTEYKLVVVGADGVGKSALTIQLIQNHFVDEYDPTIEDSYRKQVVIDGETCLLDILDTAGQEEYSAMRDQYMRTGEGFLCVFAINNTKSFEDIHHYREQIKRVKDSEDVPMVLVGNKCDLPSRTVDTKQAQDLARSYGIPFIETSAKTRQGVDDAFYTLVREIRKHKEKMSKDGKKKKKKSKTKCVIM

Row | Compound | IC50 [nM]
1 | CC[C@H](C)[C@@H]1NC(=O)[C@H](CCC(C)C)N(C)C(=O)C[C@@H](C(=O)N2CCC2)N(C)C(=O)[C@H](C2CCCC2)N(C)C(=O)C2(CCCC2)NC(=O)[C@@H]2CCCN2C(=O)[C@H](CCc2ccc(C(F)(F)F)c(Cl)c2)NC(=O)CN(C)C(=O)[C@H](CC2CCCCC2)N(C)C(=O)[C@@H]2CCN2C(=O)[C@H](C)N(C)C1=O [Compound 806] ([NMehLeu]I[NMeA][Aze][NMeCha][Sar][hPhe(3-Cl-4-CF3)]P[Ac5c][NMeGly(cPent)][NMeD]-{Azetidin(1-yl)}; lactam N-11) | 1.1
2 | CC[C@H](C)[C@@H]1NC(=O)[C@H](C)N(C)C(=O)C[C@@H](C(=O)N2CCCC2)NC(=O)[C@H](CC(C)C)N(C)C(=O)[C@H](Cc2ccccc2)N(C)C(=O)[C@H](CC(C)C)NC(=O)[C@H](CCc2ccc(C(F)(F)F)cc2)NC(=O)CN(C)C(=O)[C@H](Cc2ccc(Cl)cc2)N(C)C(=O)CN(C)C(=O)CNC1=O [Compound 808] ([NMeA]IG[Sar][NMePhe(4-Cl)][Sar][hPhe(4-CF3)]L[NMeF][NMeL]D-Pyrrolidide; lactam N-11) | 99
3 | CC[C@H](C)[C@@H]1NC(=O)[C@H](CC(C)C)N(C)C(=O)C[C@@H](C(=O)N2CCCCC2)N(C)C(=O)[C@H](C2CCCCC2)N(C)C(=O)C2(CCCC2)NC(=O)[C@@H]2Cc3ccccc3N2C(=O)[C@H](CCc2ccc(C(F)(F)F)c(Cl)c2)NC(=O)CN(C)C(=O)[C@H](CC2CCCCC2)N(C)C(=O)[C@@H]2CCN2C(=O)[C@H](C)N(C)C1=O [Compound 812] ([NMeL]I[NMeA][Aze][NMeCha][Sar][hPhe(3-Cl-4-CF3)][X22][Ac5c][NMeChg][NMeD]-Piperidide; lactam N-11) | 36
4 | CCCC[C@@H]1NC(=O)[C@H](Cc2cccc(I)c2)NC(=O)CN(C)C(=O)[C@H](Cc2ccc(Cl)cc2)N(C)C(=O)CN(C)C(=O)CN(C)C(=O)[C@H]([C@@H](C)CC)NC(=O)[C@H](CC(C)C)N(C)C(=O)C[C@@H](C(=O)N2CCCCC2)N(C)C(=O)[C@H](CC(C)C)NC(=O)[C@H](Cc2ccccc2C(F)(F)F)N(C)C1=O [Compound 813] ([NMeL]I[Sar][Sar][NMePhe(4-Cl)][Sar][Phe(3-I)][Nle][NMePhe(2-CF3)]L[NMeD]-Piperidide; lactam N-11) | 69
5 | CCCOC[C@@H]1NC(=O)[C@H](CCN2CC(F)(F)C2)N(C)C(=O)[C@H](CCc2ccc(C(F)(F)F)c(Cl)c2)NC(=O)CN(C)C(=O)[C@H](CC2CCCCC2)N(C)C(=O)[C@@H]2CCN2C(=O)[C@H](C)N(C)C(=O)[C@H]([C@@H](C)CC)NC(=O)[C@H](CC(C)C)N(C)C(=O)C[C@@H](C(=O)N(C)C)N(C)C(=O)[C@H](C2CCCC2)N(C)C1=O [Compound 817] ([NMeL]I[NMeA][Aze][NMeCha][Sar][hPhe(3-Cl-4-CF3)][NMeDab(N,N-(CH2CF2CH2))]S(Propyl)[NMeGly(cPent)][NMeD]-NMe2; lactam N-11) | 15
6 | CCCC[C@@H]1NC(=O)[C@H](Cc2cccc(I)c2)NC(=O)CN(C)C(=O)[C@H](Cc2ccc(Cl)cc2)N(C)C(=O)CN(C)C(=O)CN(C)C(=O)[C@H]([C@@H](C)CC)NC(=O)[C@H](CC(C)C)N(C)C(=O)C[C@@H](C(=O)N2CCCCC2)N(C)C(=O)[C@H](CC(C)C)NC(=O)[C@H](Cc2ccc(OC(F)(F)F)cc2)N(C)C1=O [Compound 819] ([NMeL]I[Sar][Sar][NMePhe(4-Cl)][Sar][Phe(3-I)][Nle][NMeY](CF3)L[NMeD]-Piperidide; lactam N-11) | 53
7 | CC[C@H](C)[C@@H]1NC(=O)[C@H](C)N(C)C(=O)C[C@@H](C(=O)N2CCCCC2)N(C)C(=O)[C@H](C(C)C)N(C)C(=O)C2(CCCC2)NC(=O)[C@H](Cc2ccc(F)cc2)N(C)C(=O)[C@H](CCc2ccc(C(F)(F)F)c(Cl)c2)NC(=O)CN(C)C(=O)[C@H](CC2CCCCC2)N(C)C(=O)CN(C)C(=O)CN(C)C1=O [Compound 821] ([NMeA]I[Sar][Sar][NMeCha][Sar][hPhe(3-Cl-4-CF3)][NMePhe(4-F)][Ac5c][NMeV][NMeD]-Piperidide; lactam N-11) | 12
